As usually defined, the Papp is the rate of passage across a membrane or cell layer, normalised by area and donor concentration. The EC50 is the midpoint of the concentration-response curve. A lower EC50 goes with higher potency in that assay. The IC50 is the concentration at which inhibition is half-maximal. A word on the solubility: it is the dissolved amount per volume that the medium holds. A higher solubility goes with much dissolved substance.

≈ marks a conversion by molar mass, not a printed value.

Results on five molecules are retold here after ChEMBL document CHEMBL4219225, “Practical application of ligand efficiency metrics in lead optimisation” (Bioorg Med Chem, 2018).

Data set [1] is described as follows: Apparent permeability in MDCK cells. It counts as ADME, cell-based, Canis lupus familiaris. As to conditions: dog.
Data set [2] addresses T1, Glucose-dependent insulinotropic receptor (Homo sapiens, UniProt Q8TDV5).
T1 sequence (Q8TDV5 whole entry): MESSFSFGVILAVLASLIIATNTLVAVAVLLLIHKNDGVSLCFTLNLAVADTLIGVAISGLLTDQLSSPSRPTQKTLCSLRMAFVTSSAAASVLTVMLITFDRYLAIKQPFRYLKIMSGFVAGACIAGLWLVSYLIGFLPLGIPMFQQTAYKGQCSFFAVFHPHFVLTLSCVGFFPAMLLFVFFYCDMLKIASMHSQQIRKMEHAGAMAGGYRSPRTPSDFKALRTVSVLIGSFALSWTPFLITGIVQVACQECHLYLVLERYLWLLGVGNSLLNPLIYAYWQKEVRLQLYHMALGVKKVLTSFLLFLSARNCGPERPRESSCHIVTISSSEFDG
The data set can be described thus: Agonist activity at GPR119 (unknown origin). It counts as functional.

In data set [3] the target is Voltage-gated inwardly rectifying potassium channel KCNH2 (Homo sapiens, UniProt Q12809). Put plainly: Inhibition of human ERG.
Data set [4] is described as follows: Solubility of the compound at pH 7.4. It counts as physicochemical. As to conditions: buffer.

Chain of Voltage-gated inwardly rectifying potassium channel KCNH2 (Q12809 whole entry): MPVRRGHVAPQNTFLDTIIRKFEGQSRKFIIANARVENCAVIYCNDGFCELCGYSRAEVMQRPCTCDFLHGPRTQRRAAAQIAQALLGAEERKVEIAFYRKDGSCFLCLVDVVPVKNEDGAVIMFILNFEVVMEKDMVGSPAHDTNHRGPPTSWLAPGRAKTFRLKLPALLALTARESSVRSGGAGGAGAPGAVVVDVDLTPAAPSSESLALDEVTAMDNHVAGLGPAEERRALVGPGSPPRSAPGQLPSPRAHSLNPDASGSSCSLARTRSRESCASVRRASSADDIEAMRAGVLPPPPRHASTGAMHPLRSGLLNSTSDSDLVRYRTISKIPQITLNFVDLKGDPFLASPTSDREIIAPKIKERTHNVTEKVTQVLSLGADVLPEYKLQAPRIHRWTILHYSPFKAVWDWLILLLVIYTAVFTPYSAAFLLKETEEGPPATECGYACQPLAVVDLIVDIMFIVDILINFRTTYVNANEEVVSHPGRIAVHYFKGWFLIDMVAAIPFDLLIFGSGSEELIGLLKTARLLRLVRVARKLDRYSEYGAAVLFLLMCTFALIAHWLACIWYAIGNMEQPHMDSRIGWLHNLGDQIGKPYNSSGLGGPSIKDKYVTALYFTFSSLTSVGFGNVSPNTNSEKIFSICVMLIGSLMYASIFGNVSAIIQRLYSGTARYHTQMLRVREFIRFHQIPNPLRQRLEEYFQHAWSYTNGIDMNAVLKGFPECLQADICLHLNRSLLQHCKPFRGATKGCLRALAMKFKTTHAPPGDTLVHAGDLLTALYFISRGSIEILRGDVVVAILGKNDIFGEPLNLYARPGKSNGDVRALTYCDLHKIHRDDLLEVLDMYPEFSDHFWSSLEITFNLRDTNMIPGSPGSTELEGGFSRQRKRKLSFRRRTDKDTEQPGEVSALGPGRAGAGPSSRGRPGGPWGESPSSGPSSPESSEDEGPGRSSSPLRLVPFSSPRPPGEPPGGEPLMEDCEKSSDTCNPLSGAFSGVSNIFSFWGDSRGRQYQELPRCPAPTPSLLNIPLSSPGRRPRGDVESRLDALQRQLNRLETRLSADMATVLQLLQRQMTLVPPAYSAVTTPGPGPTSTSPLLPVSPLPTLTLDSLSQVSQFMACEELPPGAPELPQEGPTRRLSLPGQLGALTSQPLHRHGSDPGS

Regarding `Cc1nc(C)c(-c2ccc(-c3ccc([C@H](C)C(=O)O)cc3Cl)c(F)c2)nc1C(N)=O`, the Papp in data set [1] is 14 ×10⁻⁶ cm/s.

Turning to `Cc1nc(C)c(-c2ccc(-c3ccc(CC(=O)O)cc3)c(Cl)c2)nc1C(N)=O`, in data set [1], the Papp was 7.4 ×10⁻⁶ cm/s.

Take `N#Cc1cnccc1COc1cnc(N2CCN(c3noc(C(F)(F)F)n3)CC2)nc1`: the response in data set [2] was half-maximal at 0.002 µM (EC50). The same molecule gave an IC50 in data set [3] of 6.31 µM. The same molecule showed a solubility in data set [4] of 3.1 µM (≈ 1.34 µg/mL).

Take `N#Cc1cnccc1COc1cnc(N2CCN(c3nc(C(F)(F)F)no3)CC2)nc1`: the EC50 in data set [2] was 0.00501 µM. Further, the IC50 in data set [3] is 6.31 µM. The same molecule came in with a solubility in data set [4] of 4800 µM (≈ 2080 µg/mL).

Molecule `N#Cc1cnccc1COc1cnc(N2CCN(c3nnc(C(F)(F)F)o3)CC2)nc1` gave an EC50 in data set [2] of 0.0251 µM. In data set [3], this molecule had an IC50 of 20 µM. The molecule also gave a solubility in data set [4] of 120 µM (≈ 51.9 µg/mL).
